The target in one test is T1, BRD4 (Homo sapiens, UniProt O60885).
T1 construct: Western blot masurement of BRD4 levels in LP1 cells treated for 16 h with; endogenous in cells; host or cells: LP1 and MM1S cells
In words: Global proteomics / Western blot of BRD4 level. In kind it is cell-based. The note with it: LP1 and MM1S cells, 16 h, 1 μM; verified by Western blot. The protocol:
(§1) cooperativity factor (α) was defined as the ratio of the IC50 values in the absence and […]
(§2) For the ternary complex experiments, the final assay composition was: 0.1 % DMSO, 5 nM GST-CBP, 5 nM CRBN-Avi(biotin), 100 mM KF, 0.625 nM XL665-Streptavidin conjugate and 0.8 nM anti-GST mAb – Eu3+-cryptate. The maximal control contained 40 nM dCBP-1, the blank contained no PROTAC. Hook curves were generated by normalization to the maximal control.
(§3) LP1 cells were cultured in DMEM (Gibco, 41966-029) supplemented with 15 % FBS (Sigma, F9665); MM1S and LNCaP cells in RPMI 1640 ATCC modification (Gibco, […]
(§4) DMEM/F12 (Gibco, 11320074) supplemented with 1 % non-essential amino acids […]
(§5) Quantification of CBP/EP300 degradation by Western blotting
(§6) LP1 cells plated on 6 well plates were treated with the stated compounds at a final concentration of 0.1 % DMSO for the stated time. […] Protein concentrations were determined using the Pierce ™ BCA Protein Assay Kit (Thermo Scientific, 23227) and equal amounts were separated on 4-12 % ExpressPl us™ PAGE gels (GenScript, M41215). […]
(§7) SuperSignal™ West Pico PLUS Chemiluminescent Substrate (Thermo Scientific, 34580) and the Vilber Fusion-FX7 imager. Bands were quantified using ImageJ software and protein levels normalized to protein from DMSO treated cells run on the same membrane. […]

For test [1], the system named is crebbp and ep300 expression. In words: Gene expression analysis by RT-qPCR in LP1 cells. Type of test: cell-based. To be noted: 16 h, 1 μM, normalized to hprt. The protocol: as §1, §2, §3, §4, §5, §6, §7
Background: Real-time PCR tracks product formation cycle by cycle.

In the case of `Cc1cc2c(NC(=O)c3cc(NC(=O)CCCCCCCCCCNc4cccc5c4C(=O)N(C4CCC(=O)NC4=O)C5=O)cc(-c4ccn(C)n4)c3)cccc2nn1` (centres unmarked) [dCE-2], the “level of BRD4” value on BRD4 is given as “not changed”. In addition, the “crebbp and ep300 expression” value in test [1] is listed as “mild upregulation”.
